Experimental data taken from US10597388B2, “Pyridazinone herbicides” (FMC CORPORATION, priority 2014, dated 2020).

Key:
Type in all cases: in vivo
[1] = test system: barnyardgrass (Echinochloa crus-galli); assay: Test B flooded paddy test; conditions: 250 g ai/ha, Flood; visual rating on scale of 0 to 100 where 0 is no effect and 100 is complete control; 13 to 15 d after treatment
Method in brief: (§1)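 Plants grown to the 2-leaf stage. At treatment, pots were flooded to 3 cm above the soil, compound was applied directly to the paddy water, and that depth was held throughout. After 13 to 15 d in the greenhouse, response was rated visually against controls on a 0 (no effect) to 100 (complete control) scale.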

[2] = test system: ducksalad (Heteranthera limosa); assay: Test B flooded paddy test; conditions: 250 g ai/ha, Flood; visual rating on scale of 0 to 100 where 0 is no effect and 100 is complete control; 13 to 15 d after treatment
Method in brief: as §1

[3] = test system: rice (Oryza sativa); assay: Test B flooded paddy test; conditions: 250 g ai/ha, Flood; visual rating on scale of 0 to 100 where 0 is no effect and 100 is complete control; 13 to 15 d after treatment
Method in brief: as §1

[4] = test system: sedge, umbrella (small-flower umbrella sedge, Cyperus difformis); assay: Test B flooded paddy test; conditions: 250 g ai/ha, Flood; visual rating on scale of 0 to 100 where 0 is no effect and 100 is complete control; 13 to 15 d after treatment
Method in brief: as §1

[5] = test system: ragweed (common ragweed, Ambrosia elatior); assay: Test C greenhouse herbicide test, pre- and postemergence
Method in brief: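 Seeds sown in loam–sand blend treated preemergence; plants in peat-based medium sprayed postemergence at 2–18 cm (1- to 4-leaf stage); chemicals in non-phytotoxic solvent with surfactant. Greenhouse 13–15 d, then visual rating versus controls on 0–100 scale (0 no effect, 100 complete control).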

[6] = test system: chickweed (common chickweed, Stellaria media); assay: Test C greenhouse herbicide test, postemergence
Method in brief: (§2)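 Postemergence foliar treatment, 1- to 4-leaf stage (2–18 cm), peat/vermiculite medium; greenhouse 13–15 d; visual rating vs controls, 0 = no effect, 100 = complete control; dash = no result.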

[7] = test system: kochia (Kochia scoparia); assay: Test C greenhouse herbicide test, postemergence
Method in brief: as §2

[8] = test system: oat, wild (wild oat, Avena fatua); assay: Test C greenhouse herbicide test, postemergence
Method in brief: as §2

[9] = test system: waterhemp_RES1 (ALS & Triazine resistant common waterhemp, Amaranthus rudis); assay: Test E greenhouse herbicide test, postemergence
Procedure: (§3) At the same time, plants from these crop and weed species and also waterhemp_RES1, (ALS & Triazine resistant common waterhemp, Amaranthus rudis), and waterhemp_RES2, (ALS & HPPD resistant common waterhemp, Amaranthus rudis) were planted in pots containing Redi-Earth® planting medium (Scotts Company, 14111 Scottslawn Road, Marysville, Ohio 43041) comprising spaghnum peat moss, vermiculite, wetting agent and starter nutrients were treated with postemergence applications of test chemicals formulated in the same manner. Plants ranged in height from 2 to 18 cm for postemergence treatments (1- to 4-leaf stage). Treated plants and controls were maintained in a greenhouse for 14 to 21 d, after which time all species were compared to controls and visually evaluated. Plant response ratings, summarized in Table E, are based on a scale of 0 to 100 where 0 is no effect and 100 is complete control. A dash (-) response means no test result.

[10] = test system: waterhemp_RES2 (ALS & HPPD resistant common waterhemp, Amaranthus rudis); assay: Test E greenhouse herbicide test, postemergence
Procedure: as §3

[11] = Postemergence, 31 g ai/ha, scale 0 to 100 (0 no effect, 100 complete control)
[12] = Postemergence, 62 g ai/ha, 0 to 100 scale (0 no effect, 100 complete control)
[13] = Postemergence, 250 g ai/ha, scale 0 to 100, 0 no effect, 100 complete control, 13 to 15 d
[14] = Preemergence, 31 g ai/ha, scale 0 to 100, 0 is no effect, 100 is complete control
[15] = Preemergence, 62 g ai/ha, scale 0 to 100, 0 is no effect, 100 is complete control
[16] = Preemergence, 125 g ai/ha, scale 0 to 100, 0 is no effect, 100 is complete control
[17] = Preemergence, 250 g ai/ha, scale 0 to 100 (0 no effect, 100 complete control)
[18] = postemergence, 125 g ai/ha, scale 0 to 100, 0 no effect, 100 complete control
[19] = 31 g ai/ha, visual, scale 0 no effect to 100 complete control
[20] = 125 g ai/ha, scale 0 to 100 (0 no effect, 100 complete control)
[21] = 250 g ai/ha, scale 0 to 100 (0 no effect, 100 complete control)
[22] = Postemergence, 125 g ai/ha, scale 0 to 100, 0 is no effect, 100 is complete control
[23] = postemergence, 62 g ai/ha, scale 0 to 100, 0 no effect, 100 complete control
[24] = 16 g ai/ha, visual, scale 0 no effect to 100 complete control
[25] = Postemergence, 31 g ai/ha, 0 to 100 scale (0 no effect, 100 complete control)

Structure (SMILES) | Plant response rating, Barnyardgrass [1] | Plant response rating, Ducksalad [2] | Plant response rating, Rice [3] | Plant response rating, Ragweed [5, 13] | Plant response rating, Ragweed [5, 14] | Plant response rating, Ragweed [5, 15] | Plant response rating, Ragweed [5, 16] | Ragweed plant response rating [5, 17] | Plant response rating, Chickweed [6, 13] | Plant response rating, Kochia [7, 13] | Plant response rating, Oat, Wild [8, 13] | Plant response rating, Waterhemp_RES1 [9, 19] | Plant response rating, Waterhemp_RES1 [9, 20] | Plant response rating, Waterhemp_RES2 [10, 19] | Plant response rating, Waterhemp_RES2 [10, 20] | Plant response rating, Ragweed [5, 22] | Plant response rating, Chickweed [6, 22] | Chickweed plant response rating [6, 23] | Plant response rating, Kochia [7, 22] | Plant response rating, Oat, Wild [8, 22] | also measured
CC(=O)Oc1c(C)nn(C)c(=O)c1-c1c(C)cc(C)c2ccccc12 [Compound 153] | 0 | 0 | 0 | 90 | 95 | 95 | 98 | 100 | 98 | 85 | 95 | 50 | 50 | 10 | 30 | – | – | – | – | – | Plant response rating, Sedge, Umbrella [4]: 0; Plant response rating, Ragweed [5, 11]: 70; Ragweed plant response rating [5, 12]: 90; Ragweed plant response rating [5, 18]: 95; Plant response rating, Chickweed [6, 11]: 90; Chickweed plant response rating [6, 12]: 95; Chickweed plant response rating [6, 18]: 98; Plant response rating, Kochia [7, 11]: 40; Kochia plant response rating [7, 12]: 70; Kochia plant response rating [7, 18]: 80; Plant response rating, Oat, Wild [8, 11]: 90; Oat, Wild plant response rating [8, 12]: 95; Oat, Wild plant response rating [8, 18]: 95; Plant response rating, Waterhemp_RES1 [9, 21]: 60; Plant response rating, Waterhemp_RES2 [10, 21]: 50
CCC(=O)Oc1c(C)nn(C)c(=O)c1-c1c(C)sc2ccc(Cl)cc12 [Compound 109] | – | – | – | 100 | 95 | 90 | 95 | 100 | 100 | 100 | 90 | 70 | 90 | 50 | 60 | 100 | 95 | 95 | 100 | 90 | Plant response rating, Ragweed [5, 11]: 80; Plant response rating, Chickweed [6, 11]: 80; Plant response rating, Kochia [7, 11]: 95; Plant response rating, Oat, Wild [8, 11]: 80; Plant response rating, Waterhemp_RES1 [9, 24]: 60
CCOC(=O)Oc1c(C)nn(C)c(=O)c1-c1c(C)sc2ccc(C)cc12 [Compound 82] | 0 | 0 | 0 | 95 | 85 | 90 | 90 | 95 | 98 | 90 | 90 | 60 | 85 | 50 | 60 | 95 | 90 | 90 | 90 | 90 | Plant response rating, Sedge, Umbrella [4]: 0; Ragweed plant response rating [5, 23]: 98; Chickweed plant response rating [6, 25]: 90; Kochia plant response rating [7, 23]: 90; Oat, Wild plant response rating [8, 23]: 85; Plant response rating, Waterhemp_RES1 [9, 21]: 95; Plant response rating, Waterhemp_RES2 [10, 21]: 60
COC(=O)Oc1c(C)nn(C)c(=O)c1-c1c(C)sc2c(C)cc(C)cc12 [Compound 81] | 60 | 70 | 60 | 85 | 85 | 95 | 95 | 98 | 95 | 80 | 95 | 50 | 60 | 10 | 50 | 70 | 95 | 90 | 80 | 95 | Plant response rating, Sedge, Umbrella [4]: 80; Ragweed plant response rating [5, 23]: 75; Chickweed plant response rating [6, 25]: 90; Kochia plant response rating [7, 23]: 75; Oat, Wild plant response rating [8, 23]: 90; Plant response rating, Waterhemp_RES1 [9, 21]: 65; Plant response rating, Waterhemp_RES2 [10, 21]: 50
CC(=O)Oc1c(C)nn(C)c(=O)c1-c1ccc(F)c2ccccc12 [Compound 90] | – | – | – | 100 | 80 | 90 | 85 | 95 | 98 | 100 | 95 | 50 | 80 | 50 | 70 | 95 | 95 | 90 | 100 | 90 | Ragweed plant response rating [5, 23]: 85; Chickweed plant response rating [6, 25]: 90; Kochia plant response rating [7, 23]: 100; Oat, Wild plant response rating [8, 23]: 70; Plant response rating, Waterhemp_RES1 [9, 24]: 50; Plant response rating, Waterhemp_RES2 [10, 24]: 50
